The text below walks through data of patent US10919896B2, “Preparation and uses of pyrimidinone derivatives” (Cancer Research Technology Limited, priority 2016, dated 2021).

In this assay the target is Cdc7/ASK (Homo sapiens, UniProt O00311). The assay can be described thus: Cdc7 Biochemical Assay Method 1: 384 well ELISA, whole protein substrate MCM2, antibody against Phospho MCM2 (S53). Details: purchased. The settings on record: 2 μM ATP, read-out: Biochemical Method 1 (pIC50) (converted). The method, then: This protocol describes a method for assaying Cdc7/ASK for activity. The assay is a 384 well ELISA assay, utilising a whole protein substrate (MCM2) and an antibody against Phospho MCM2 (S53). This site is thought to be specific to Cdc7/ASK phosphorylation and the assay has been validated using knockout mutants. Reagents • TBS: 25 mM Tris pH 7.2, 150 mM NaCl. (Dilute 10× stock by 1:10). • Wash Buffer: TBS+0.05% Tween 20. (Add 100 mL 1 M Tris pH 7.2, 120 mL 5 M NaCl and 2 mL 100% Tween 20 per 4 L). • Kinase Reaction Buffer: 50 mM Tris-HCl pH 8.5, 10 mM MgCl2, 1 mM DTT. (Dilute 10× stock by 1:10 and add 100 μL 1M DTT per 100 mL prior to assay). • Diethanolamine Buffer: 1 M diethanolamine pH 9.8, 0.5 mM MgCl2. • Stop Solution: 1 M NaOH. • MCM2 was expressed and purified in-house and used in the assay at a final assay concentration of 436 ng/well. • Cdc7/ASK is purchased from commercial suppliers and used in the assay at a final assay concentration of 37.97 ng/well or 20.63 nM. • ATP used as a final assay concentration of 2 μM. • Primary Antibody: Rabbit anti-Phospho MCM2 (S53 Antibody (BL3353)), is purchased from commercial suppliers at 0.2 mg/mL and used at a final assay concentration by diluting 1:800 in TBS. • Secondary Antibody: Anti-Rabbit/AP Antibody is supplied is purchased from commercial suppliers at 1 mg/mL and used at a final assay concentration by diluting 1:2000 in TBS. • Development Reagent: Dissolve one 20 mg PNPP tablet (Sigma, product […], 20 mg per tablet) per 20 mL diethanolamine Buffer (or one 5 mg PNPP tablet per 5 mL diethanolamine buffer). Cover in foil and leave shaking on a roller shaker at room temperature for up to an hour to dissolve. Methods • 1. Add 20 μL 1× working stock of Substrate (MCM2) in TBS to all wells of a clear, 384 well, Nickel-chelate microplate to give a final concentration of […]. Incubate at room temperature for at least 1 hour. Plates can be pre-coated for 1 hour and stored at 4° C. for up to 8 days. • 2. Wash with TBS+0.05% Tween 20 (80 μL×3). • 3. Add 2 μL 10× test compounds, including the positive control, in 40% DMSO/water to 'test' wells. Add 2 μL 40% DMSO/water to 'control' and 'blank' wells. The final DMSO concentration will be 4%. • 4. Add 13 μL CDC7/ASK Kinase (1.5× stock) in Kinase Reaction Buffer to 'test' and 'control' wells to give a final concentration of […]. Add 13 μL Kinase Reaction Buffer to 'blank' wells. • 5. Add 5 μL ATP (4× stock) in Kinase Reaction Buffer to all wells to give a final concentration of 2 μM. • 6. Incubate at room temperature for 90 minutes. • 7. Wash with TBS+0.05% Tween 20 (80 μL×3). • 8. Add 20 μL 1× working solution of Primary Antibody in TBS to all wells. Incubate at room temperature for 30 minutes. • 9. Wash with TBS+0.05% Tween 20 (80 μL×3). • 10. Add 20 μL 1× working solution of Secondary Antibody in TBS to all wells. Incubate at room temperature for 30 minutes. • 11. Wash with TBS+0.05% Tween 20 (80 μL×3). • 12. Add 20 μL 1× Development Reagent to all wells. • 13. Incubate at room temperature for 2 hours. Stop the reaction by adding 20 μL Stop Solution to all wells and record Absorbance on a Pherastar plate reader. Percentage inhibition values were calculated from absorbance values, using the no compound (DMSO) and no enzyme control values as 0% and 100% inhibition, respectively. IC50 determination was performed with ExcelFit software (IDBS) using curve fit 205. Z' factors were determined for each plate tested and were all above 0.5. Method 2
Sequence of Cdc7/ASK (O00311 whole entry): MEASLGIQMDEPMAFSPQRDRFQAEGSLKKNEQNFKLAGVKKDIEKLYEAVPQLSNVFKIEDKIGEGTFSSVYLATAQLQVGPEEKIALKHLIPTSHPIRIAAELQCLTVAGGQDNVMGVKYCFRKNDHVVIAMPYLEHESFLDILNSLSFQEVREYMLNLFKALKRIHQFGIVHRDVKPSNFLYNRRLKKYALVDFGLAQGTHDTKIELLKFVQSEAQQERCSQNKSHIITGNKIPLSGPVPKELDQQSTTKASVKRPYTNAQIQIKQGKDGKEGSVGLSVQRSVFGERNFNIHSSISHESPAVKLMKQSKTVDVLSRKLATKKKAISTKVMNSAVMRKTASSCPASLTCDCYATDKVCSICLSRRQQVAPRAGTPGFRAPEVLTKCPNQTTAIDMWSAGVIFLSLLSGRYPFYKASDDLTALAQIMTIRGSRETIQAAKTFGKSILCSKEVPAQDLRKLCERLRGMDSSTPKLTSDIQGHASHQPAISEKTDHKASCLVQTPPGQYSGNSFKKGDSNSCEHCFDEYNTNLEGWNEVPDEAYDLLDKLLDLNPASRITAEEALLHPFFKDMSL
Sequence of Cdc7/ASK (Q9UBU7 whole entry partner): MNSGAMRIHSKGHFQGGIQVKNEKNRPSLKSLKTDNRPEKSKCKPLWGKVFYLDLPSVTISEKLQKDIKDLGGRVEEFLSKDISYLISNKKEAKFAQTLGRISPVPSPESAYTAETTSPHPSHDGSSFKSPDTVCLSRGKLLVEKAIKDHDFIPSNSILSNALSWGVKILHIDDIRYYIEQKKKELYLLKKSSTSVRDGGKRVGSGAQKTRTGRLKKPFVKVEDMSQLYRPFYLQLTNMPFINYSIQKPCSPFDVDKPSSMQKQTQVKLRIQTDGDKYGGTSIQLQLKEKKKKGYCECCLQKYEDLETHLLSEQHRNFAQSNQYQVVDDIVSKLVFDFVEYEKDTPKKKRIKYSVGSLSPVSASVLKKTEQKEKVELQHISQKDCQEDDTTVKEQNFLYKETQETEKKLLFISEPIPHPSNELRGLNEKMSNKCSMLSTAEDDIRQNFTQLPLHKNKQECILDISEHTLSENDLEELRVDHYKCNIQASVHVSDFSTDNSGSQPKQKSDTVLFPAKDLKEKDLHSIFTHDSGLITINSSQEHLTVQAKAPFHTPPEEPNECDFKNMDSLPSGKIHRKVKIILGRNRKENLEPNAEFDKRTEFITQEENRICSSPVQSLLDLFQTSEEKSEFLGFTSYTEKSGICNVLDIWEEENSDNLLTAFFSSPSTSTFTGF

With `CC(C)(C)OC(=O)N1CCC(c2nc(-c3ccncc3)[nH]c(=O)c2Cl)CC1` [Compound 1, tert-Butyl 4-[5-chloro-6-oxo-2-(4-pyridyl)-1H-pyrimidin-4-yl]piperidine-1-carboxylate], the IC50 was 70.8 nM.

Turning to `O=c1[nH]c(-c2ccncc2)nc(C2CCNCC2)c1Cl` [Compound 2, 5-Chloro-6-piperidin-4-yl-2-pyridin-4-yl-3H-pyrimidin-4-one], the IC50 was 1.74 nM.

As for `O=c1[nH]c(-c2ccncc2)nc(C2CCOCC2)c1Br` [Compound 3, 5-bromo-2-(4-pyridyl)-4-tetrahydropyran-4-yl-1H-pyrimidin-6-one], the IC50 was 6.76 nM.

Regarding `O=c1[nH]c(-c2ccncc2)nc(C2CCOCC2)c1I` [Compound 4, 5-Iodo-2-(4-pyridyl)-4-tetrahydropyran-4-yl-1H-pyrimidin-6-one], the IC50 was 331 nM.

In the case of `O=c1[nH]c(-c2ccncc2)nc(C2CCOCC2)c1F` [Compound 5, 5-fluoro-2-(4-pyridyl)-4-tetrahydropyran-4-yl-1H-pyrimidin-6-one], the IC50 is 6.31 nM.

As to `O=c1[nH]c(-c2ccncc2)nc(C2CCOCC2)c1Cl` [Compound 6], the IC50 is 1.45 nM.

Turning to `O=c1[nH]c(-c2ccncc2)nc(C2CCCN2)c1Cl` (stereo not shown) [Compound 7], the IC50 is 2450 nM.

In the case of `O=c1[nH]c(-c2ccncc2)nc(C2CCCNC2)c1Cl` (stereo not shown) [Compound 8], the IC50 was 3.63 nM.

Consider `CC1(c2nc(-c3ccncc3)[nH]c(=O)c2Cl)CCOCC1` [Compound 9], for which the IC50 was 3.39 nM.

Turning to `CC1(c2nc(-c3ccnc(F)c3)[nH]c(=O)c2Cl)CCOCC1` [Compound 10], the IC50 was 3.02 nM.

Turning to `O=c1[nH]c(-c2ccncc2)nc(C2CCNC2)c1Cl` (stereo not shown) [Compound 11], the IC50 was 5.25 nM.

Turning to `O=c1[nH]c(-c2ccncc2)nc(C2CCOC2)c1Cl` (stereo not shown) [Compound 12], the IC50 is 20 nM.

As for `CC(C)C1CC(c2nc(-c3ccncc3)[nH]c(=O)c2Cl)CCO1` (stereo not shown) [Compound 14], the IC50 was 123 nM.

Turning to `O=c1[nH]c(-c2ccncc2)nc(C2CCCCO2)c1Cl` (stereo not shown) [Compound 15], the IC50 was 832 nM.

Regarding `O=c1[nH]c(-c2ccncc2)nc(C2CCCOC2)c1Cl` (stereo not shown) [Compound 16], the IC50 is 12.9 nM.

With `O=c1[nH]c(-c2ccnc(F)c2)nc(C2CCOCC2)c1F` [Compound 17], the IC50 was 2.34 nM.

For `O=c1[nH]c(-c2ccnc(F)c2)nc(C2(F)CCOCC2)c1Cl` [Compound 18], the IC50 was 0.794 nM.

For `O=c1[nH]c(-c2ccncc2)nc(C2(F)CCCNC2)c1Cl` (stereo not shown) [Compound 19], the IC50 was 3.39 nM.

Consider `O=c1[nH]c(-c2ccncc2)nc(C2CNCCO2)c1Cl` (stereo not shown) [Compound 20], for which the IC50 is 347 nM.

As for `O=c1[nH]c(-c2ccncc2)nc(C2(F)CCNCC2)c1Cl` [Compound 21], the IC50 was 1.51 nM.

Regarding `CC(C)(C)OC(=O)N1CCC(F)(c2nc(-c3ccncc3)[nH]c(=O)c2Cl)CC1` [Compound 22], the IC50 was 74.1 nM.

On to `O=c1[nH]c(-c2ccnc(Cl)c2)nc(C2CCOCC2)c1Cl` [Compound 23], for which the IC50 is 19.1 nM.

For `O=c1[nH]c(-c2ccnc(C(F)(F)F)c2)nc(C2CCOCC2)c1Cl` [Compound 24], the IC50 was 1020 nM.

As for `CC(C)(C)OC(=O)N1CCC(c2nc(-c3ccnc(F)c3)[nH]c(=O)c2Cl)CC1` [Compound 25], the IC50 is 23.4 nM.

As for `O=c1[nH]c(-c2ccncc2)nc(N2CCCCC2)c1Cl` [Compound 26, 5-chloro-4-(1-piperidyl)-2-(4-pyridyl)-1H-pyrimidin-6-one], the IC50 is 6.76 nM.

For `CCOC1CCN(c2nc(-c3ccncc3)[nH]c(=O)c2Cl)CC1` [Compound 27], the IC50 was 21.4 nM.

For the compound `CN(C)C1CCN(c2nc(-c3ccncc3)[nH]c(=O)c2Cl)C1` (stereo not shown) [Compound 29], the IC50 is 1260 nM.

In the case of `O=c1[nH]c(-c2ccncc2)nc(N2CCCC2)c1Cl` [Compound 30], the IC50 was 132 nM.

On to `CC(C)(C)OC(=O)N1CCN(c2nc(-c3ccncc3)[nH]c(=O)c2Cl)CC1` [Compound 32], for which the IC50 is 100 nM.

With `O=C1CN(c2nc(-c3ccncc3)[nH]c(=O)c2Cl)CCN1` [Compound 33], the IC50 is 12.9 nM.

`CC(C)C(=O)N1CCC(c2nc(-c3ccncc3)[nH]c(=O)c2Cl)CC1` [Compound 34, 5-chloro-4-[1-(2-methylpropanoyl)-4-piperidyl]-2-(4-pyridyl)-1H-pyrimidin-6-one]: the IC50 was 13.2 nM.

`CC(C)(C)OC(=O)NCC(=O)N1CCC(c2nc(-c3ccncc3)[nH]c(=O)c2Cl)CC1` [Compound 35, tert-butyl-N-[2-[4-[5-chloro-6-oxo-2-(4-pyridyl)-1H-pyrimidin-4-yl]-1-piperidyl]-2-oxo-ethyl]carbamate]: the IC50 was 22.9 nM.

Turning to `CC(C)NC(=O)N1CCC(c2nc(-c3ccncc3)[nH]c(=O)c2Cl)CC1` [Compound 36, 4-[5-chloro-6-oxo-2-(4-pyridyl)-1-H-pyrimidin-4-yl]-N-isopropyl-piperidine-1-carboxamide], the IC50 is 25.7 nM.

With `O=c1[nH]c(-c2ccncc2)nc(C2CCN(S(=O)(=O)c3ccccc3)CC2)c1Cl` [Compound 37, 4-[1-(benzenesulfonyl)-4-piperidyl]-5-chloro-2-(4-pyridyl)-1H-pyrimidin-6-one], the IC50 was 30.2 nM.

With `O=C(N1CCC(c2nc(-c3ccncc3)[nH]c(=O)c2Cl)CC1)C(F)(F)F` [Compound 38, 5-chloro-2-(4-pyridyl)-4-[1-(2,2,2-trifluoroacetyl)-4-piperidyl]-1H-pyrimidin-6-one], the IC50 is 5.62 nM.

As to `CC(=O)N1CCC(c2nc(-c3ccncc3)[nH]c(=O)c2Cl)CC1` [Compound 40], the IC50 was 8.13 nM.

`O=C(c1ccccc1)N1CCC(c2nc(-c3ccncc3)[nH]c(=O)c2Cl)CC1` [Compound 41]: the IC50 was 6.92 nM.

For the compound `CC(=O)N1CCN(c2nc(-c3ccncc3)[nH]c(=O)c2Cl)CC1` [Compound 42], the IC50 was 5.13 nM.

Consider `CS(=O)(=O)N1CCN(c2nc(-c3ccncc3)[nH]c(=O)c2Cl)CC1` [Compound 43], for which the IC50 was 3.16 nM.

As for `CC(C)(C)C(=O)N1CCC(c2nc(-c3ccncc3)[nH]c(=O)c2Cl)CC1` [Compound 44], the IC50 was 63.1 nM.

Take `O=C(c1ccccn1)N1CCC(c2nc(-c3ccncc3)[nH]c(=O)c2Cl)CC1` [Compound 45]: the IC50 is 8.71 nM.

In the case of `N#Cc1ccc(C(=O)N2CCC(c3nc(-c4ccncc4)[nH]c(=O)c3Cl)CC2)cc1` [Compound 46], the IC50 is 1.41 nM.

Consider `O=C(c1ccnnc1)N1CCC(c2nc(-c3ccncc3)[nH]c(=O)c2Cl)CC1` [Compound 47], for which the IC50 was 1.12 nM.

Regarding `N#Cc1cccc(C(=O)N2CCC(c3nc(-c4ccncc4)[nH]c(=O)c3Cl)CC2)c1` [Compound 48], the IC50 is 2.57 nM.

Consider `O=C(c1ccccc1I)N1CCC(c2nc(-c3ccncc3)[nH]c(=O)c2Cl)CC1` [Compound 49], for which the IC50 is 15.8 nM.

Take `O=C(c1cccc(O)c1)N1CCC(c2nc(-c3ccncc3)[nH]c(=O)c2Cl)CC1` [Compound 50]: the IC50 is 3.09 nM.

As for `O=C(c1ccco1)N1CCC(c2nc(-c3ccncc3)[nH]c(=O)c2Cl)CC1` [Compound 51], the IC50 is 5.13 nM.

On to `Cc1cc(C(=O)N2CCC(c3nc(-c4ccncc4)[nH]c(=O)c3Cl)CC2)[nH]n1` [Compound 52], for which the IC50 was 2.63 nM.

In the case of `O=C(Cc1c[nH]cn1)N1CCC(c2nc(-c3ccncc3)[nH]c(=O)c2Cl)CC1` [Compound 53], the IC50 is 5.75 nM.
